Experimental findings from ChEMBL document CHEMBL1155965, “Addressing the malaria drug resistance challenge using flow cytometry to discover new antimalarials” (Bioorg Med Chem Lett, 2009) are described below.

Bounds are passed on as bounds.

For data set [1], the system named is Plasmodium falciparum. The experiment in a line: Antimalarial activity against Plasmodium falciparum W2mef at 10 uM after 48 hrs by hoechst 33342-thiazole orange stain based flow cytometry assay. Type of data set: functional. On the technique in general: A flow cytometer gives signals particle by particle.
Data set [2] relates to Plasmodium falciparum. Put plainly: Antimalarial activity against Plasmodium falciparum W2mef trophozoite form by hoechst 33342-thiazole orange stain based flow cytometry assay. It is filed as functional, organism-based.
Data set [3] has as its system Plasmodium falciparum. Put plainly: Antimalarial activity against Plasmodium falciparum W2mef assessed as DNA positive erythrocytes by hoechst 33342-thiazole orange stain based flow cytometry assay. It is filed as functional, organism-based.
Data set [4] is described as follows: Cytotoxicity against human erythrocytes assessed as intact cells by propidium iodide stain based flow cytometry. Type of data set: cell-based, Erythrocyte. To be noted: read-out: Activity.
Data set [5] concerns Plasmodium falciparum. Put plainly: Antimalarial activity against Plasmodium falciparum W2mef schizont form by hoechst 33342-thiazole orange stain based flow cytometry assay. It is filed as functional, organism-based.
Data set [6] can be described thus: Cytotoxicity against human erythrocytes assessed as change in internal complexity by flow cytometry. The following applies: erythrocyte. Type of data set: cell-based.
Data set [7] in a line: Cytotoxicity against human erythrocytes assessed as change in cell shape by flow cytometry. It is filed as cell-based. To be noted: erythrocyte.
In data set [8] the test system is Plasmodium falciparum. Put plainly: Antimalarial activity against Plasmodium falciparum W2mef ring form by hoechst 33342-thiazole orange stain based flow cytometry assay. It is filed as functional, organism-based.
The test system of data set [9] is Plasmodium falciparum. Put plainly: microbe, parasite or virus in culture. The following applies: W2mef.
Description: Antimalarial activity against Plasmodium falciparum W2mef by hypoxanthine uptake assay

For orientation: inhibition means the share of the control response that was lost under treatment. A high value points to strong suppression. For the compound `Cn1cc(-c2[nH]c3cc(N)cc4c3c2C=NNC4=O)cn1`, the inhibition at 10 µM in the data set with Plasmodium falciparum [1] was 9.17%.

In the data set on Plasmodium falciparum [1], `Clc1ccc(C2(c3ccc4noc(-c5cccc(Cl)c5)c4c3)OCCO2)cc1` had an inhibition at 10 µM of 54.5%.

The compound `Cn1cnc(CSCc2ccccc2)c1` yielded an inhibition at 10 µM with Plasmodium falciparum [1] of 42.1%.

With `N#Cc1ccc(Nc2nc(O)cc(O)n2)cc1`, testing at 10 µM in the data set with Plasmodium falciparum [1] gave an inhibition of 1.46%.

The compound `CC(C)C1=NN=CC1C1CC2CCC(C1)N2` (centres undefined) yielded an inhibition at 10 µM in the data set with Plasmodium falciparum [1] of 0%.

Consider `CCN(CC)C(=O)[C@@]1(c2ccccc2)C[C@H]1CNC(=O)O[C@@H]1O[C@H](C(=O)OC)[C@@H](O)[C@H](O)[C@H]1O`, for which, in the data set with Plasmodium falciparum [1], at 10 µM the inhibition was 3.16%.

One may read the IC50 as the concentration that gives 50% inhibition. Take `Cc1cc(C#N)cc(C)c1Oc1nc(Nc2ccc(C#N)cc2)nc(N)c1Br` [ETRAVIRINE]: 10 µM produced 91.7% inhibition in the data set on Plasmodium falciparum [1]. Besides, the IC50 in the data set on Plasmodium falciparum [2] amounted to 726 nM; with Plasmodium falciparum [3] it was 506 nM; in the data set with Plasmodium falciparum [5], 716 nM; with Plasmodium falciparum [8], 409 nM. For the same compound, the viability in data set [4] is more than 98.5%. Besides, the Activity result in data set [6] and in data set [7] was “Non-toxic” each time.

`O=C(c1ccc(Cl)cc1)c1ccc2[nH]c(=O)cc(-c3cccc(Cl)c3)c2c1` registered an inhibition at 10 µM in the data set with Plasmodium falciparum [1] of 36.1%.

`Ic1ccc(CSCc2c[nH]cn2)cc1` displayed an inhibition at 10 µM with Plasmodium falciparum [1] of 37.1%.

`Fc1cccc(-c2nc3ccncc3[nH]2)c1F` gave an inhibition at 10 µM in the data set with Plasmodium falciparum [1] of 14.4%.

`COC(=O)c1cn2nc[nH]c(=O)c2c1C` had an inhibition at 10 µM with Plasmodium falciparum [1] of 9.62%.

Turning to `Oc1c(F)cc(CN2CCc3ccccc3C2)cc1F`, the inhibition at 10 µM in the data set with Plasmodium falciparum [1] worked out at 8.47%.

`Cc1ccc(-c2nc3c(Br)cc4c(c3[nH]2)C(=O)NC(=O)C4(C)C)cc1[N+](=O)[O-]` displayed an inhibition at 10 µM in the data set with Plasmodium falciparum [1] of 11.2%.

In turn, `Cn1cnc(C[S+]([O-])Cc2ccc(I)cc2)c1` (centres undefined) displayed an inhibition at 10 µM in the data set with Plasmodium falciparum [1] of 6.31%.

`Cc1cc(/C=C/C#N)cc(C)c1Nc1ccnc(Nc2ccc(C#N)cc2)n1` [RILPIVIRINE] came in with an inhibition at 10 µM in the data set with Plasmodium falciparum [1] of 49.8%. For the same compound, the IC50 was determined as 2000 nM with Plasmodium falciparum [2], 1100 nM with Plasmodium falciparum [3], 1210 nM with Plasmodium falciparum [5] and 1200 nM in the data set with Plasmodium falciparum [8].

`Cc1cc(I)ccc1Nc1c(C(=O)N2CCNCC2)cc2nc[nH]c2c1F` returned an inhibition at 10 µM with Plasmodium falciparum [1] of 0.25%.

Consider `OC(c1cc(C(F)(F)F)nc2c(C(F)(F)F)cccc12)C1CCCCN1` (centres undefined) [MEFLOQUINE], for which the IC50 worked out at 74 nM with Plasmodium falciparum [2], 44 nM in the data set on Plasmodium falciparum [5], 142 nM in the data set with Plasmodium falciparum [9] and 147 nM in the data set on Plasmodium falciparum [8].

With `O=C(NCCc1c[nH]cn1)/C(Cc1ccccc1)=N\O`, the inhibition at 10 µM with Plasmodium falciparum [1] is 2.61%.

In turn, `Cn1cnc(CSCc2ccc(I)cc2)c1` returned an inhibition at 10 µM in the data set on Plasmodium falciparum [1] of 74.9%. Besides, the IC50 with Plasmodium falciparum [2] turned out to be 16600 nM; with Plasmodium falciparum [3], 3770 nM; in the data set with Plasmodium falciparum [5], 2000 nM; with Plasmodium falciparum [8], 1080 nM.

The compound `O=S(=O)(c1ccccc1)C(CCCn1ccnc1)c1ccc(I)cc1` (centres undefined) gave an inhibition at 10 µM in the data set with Plasmodium falciparum [1] of 3.46%.

On to `C/C(O)=C(\C#N)C(=O)Nc1ccc(C(F)(F)F)cc1` [TERIFLUNOMIDE], for which the inhibition at 10 µM in the data set with Plasmodium falciparum [1] was 4.96%.

For the compound `Cn1cncc1CSCc1ccc(I)cc1`, 10 µM produced 41.9% inhibition with Plasmodium falciparum [1].

Regarding `O=C(Cc1ccc(O)cc1)N1CCc2ccccc2C1`, in the data set with Plasmodium falciparum [1], at 10 µM the inhibition was 1.1%.

`Oc1ccc(C(O)C2CCc3ccccc3C2)cc1` (centres undefined) gave an inhibition at 10 µM with Plasmodium falciparum [1] of 14.6%.

In the data set with Plasmodium falciparum [1], `COc1cc2ncn(-c3sc(C(N)=O)cc3OCc3ccccc3C(F)(F)F)c2cc1OC` displayed an inhibition at 10 µM of 24.6%.

`Cc1[nH]c(/C=C2\C(=O)Nc3ccc(S(=O)(=O)N(C)c4cccc(Cl)c4)cc32)c(C)c1C(=O)N1CCN(C)CC1` displayed an inhibition at 10 µM in the data set on Plasmodium falciparum [1] of 85.1%. For the same compound, the IC50 in the data set on Plasmodium falciparum [2] came out at 620 nM; in the data set on Plasmodium falciparum [3], 320 nM; in the data set with Plasmodium falciparum [5] it was 317 nM; in the data set with Plasmodium falciparum [8], 228 nM.

`Cc1cc(O)cc(C)c1CN1CCc2ccccc2C1` displayed an inhibition at 10 µM with Plasmodium falciparum [1] of 6.76%.

Consider `CNC(=O)c1cc(Oc2ccc(NC(=O)Nc3ccc(Cl)c(C(F)(F)F)c3)cc2)ccn1` [SORAFENIB], for which, in the data set with Plasmodium falciparum [1], 10 µM produced 87.5% inhibition. In addition, the half-inhibitory concentration (IC50) with Plasmodium falciparum [2] was 509 nM; in the data set with Plasmodium falciparum [3] it was 384 nM; with Plasmodium falciparum [5] it was 376 nM; with Plasmodium falciparum [8], 328 nM.

Turning to `C[C@@H]1CC[C@H]2[C@@H](C)C(=O)O[C@@H]3O[C@@]4(C)CC[C@@H]1[C@]32OO4` [ARTEMISININ], the IC50 in the data set on Plasmodium falciparum [2] turned out to be 7 nM; in the data set with Plasmodium falciparum [3] it was 11 nM; with Plasmodium falciparum [5], 8 nM; in the data set with Plasmodium falciparum [9], 12 nM; with Plasmodium falciparum [8], 20 nM.
